This assay has as its target T1, Androgen Receptor (AR) (Homo sapiens, UniProt P10275, T878A).
T1 construct: cell based immuno-fluorescence assay using the LNCaP prostate epithelial cell line; endogenous in cells; host or cells: LNCaP clone FGC (ATCC CRL-1740)
T1 sequence (P10275 1-920 T878A): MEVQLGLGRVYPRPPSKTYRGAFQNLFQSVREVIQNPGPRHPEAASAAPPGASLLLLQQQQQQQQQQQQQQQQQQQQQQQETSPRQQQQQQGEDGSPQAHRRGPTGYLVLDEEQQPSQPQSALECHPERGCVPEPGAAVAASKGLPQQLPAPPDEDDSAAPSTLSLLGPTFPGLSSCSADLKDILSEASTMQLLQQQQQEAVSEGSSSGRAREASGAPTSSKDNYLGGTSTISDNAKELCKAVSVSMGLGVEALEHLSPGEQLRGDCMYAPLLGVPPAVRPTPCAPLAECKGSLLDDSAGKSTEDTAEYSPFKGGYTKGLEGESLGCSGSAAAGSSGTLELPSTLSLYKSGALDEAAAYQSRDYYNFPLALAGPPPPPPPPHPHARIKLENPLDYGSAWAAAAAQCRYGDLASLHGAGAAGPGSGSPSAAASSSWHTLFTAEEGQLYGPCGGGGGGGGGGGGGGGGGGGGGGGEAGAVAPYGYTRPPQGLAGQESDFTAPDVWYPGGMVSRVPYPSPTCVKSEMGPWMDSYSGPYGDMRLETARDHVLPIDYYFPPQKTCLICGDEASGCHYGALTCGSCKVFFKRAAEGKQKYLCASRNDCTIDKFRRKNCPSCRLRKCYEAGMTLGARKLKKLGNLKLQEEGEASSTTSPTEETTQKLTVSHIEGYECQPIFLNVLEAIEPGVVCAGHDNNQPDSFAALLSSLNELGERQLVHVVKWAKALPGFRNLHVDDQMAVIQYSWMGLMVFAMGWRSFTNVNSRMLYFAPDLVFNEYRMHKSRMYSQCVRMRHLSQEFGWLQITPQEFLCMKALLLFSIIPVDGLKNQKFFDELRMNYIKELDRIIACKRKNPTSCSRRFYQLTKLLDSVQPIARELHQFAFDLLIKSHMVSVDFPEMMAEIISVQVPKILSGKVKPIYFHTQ
Description: LNCaP Androgen Receptor Down-regulation Cell Assay (immunofluorescence end point). The conditions noted are these: LNCaP prostate carcinoma cells, compound incubation 20-22 hours, 50% reduction of the AR signal; read-out: Androgen Receptor Down-regulation Assay (a) IC50/μM. The assay is classed as cell-based. Summed up:
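LNCaP cells in medium with 5% charcoal-stripped FBS were plated overnight, then treated with a compound dilution series for 20-22 h at 37° C. After fixation, permeabilisation and immunostaining, AR-associated green fluorescence was quantified by laser-scanning microplate cytometry; AR down-regulation expressed as IC50 from fitted dose-response curves.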
With `FC(F)c1nnc2ccc(N3CCN(C(c4ccccc4)c4ccccc4)CC3)nn12` [Example 5, 6-(4-benzhydrylpiperazin-1-yl)-3-(difluoromethyl)-[1,2,4]triazolo[4,3-b]pyridazine], the DC50 stood at 1.6 µM. The value for `N#Cc1ccccc1OC1CCN(c2ccc3nnc(C(F)(F)F)n3n2)CC1` [Example 654] was 2.6 µM; that for `Cn1ccc(CNC(=O)c2cccc(OC3CCN(c4ccc5nnc(C(F)(F)F)n5n4)CC3)c2)n1` [Example 706] was 2.9 µM. The value for `FC(F)(F)c1nnc2ccc(N3CCN(Cc4cccnc4Cl)CC3)nn12` [Example 369] was 8.7 µM; that for `FC(F)(F)c1nnc2ccc(N3CCN(c4c(Cl)cncc4Cl)CC3)nn12` [Example 19, 6-[4-(3,5-dichloropyridin-4-yl)piperazin-1-yl]-3-(trifluoromethyl)-[1,2,4]triazolo[4,3-b]pyridazine] was 0.52 µM; that for `FC(F)c1ccc(CN2CCN(c3ccc4nnc(C(F)(F)F)n4n3)CC2)cc1` [Example 827, 6-[4-[4-(difluoromethyl)benzyl]piperazin-1-yl]-3-(trifluoromethyl)[1,2,4]triazolo[4,3-b]pyridazine] was 1 µM.

For the compound `CS(=O)(=O)c1ccc(F)cc1CN1CCN(c2ccc3nnc(C(F)F)n3n2)CC1` [Example 819], the DC50 is more than 18 µM.

Consider `C[C@@H]1CN(Cc2cccnc2)[C@@H](C)CN1c1ccc2nnc(C(F)(F)F)n2n1` [Example 217, 6-[(2R,5S)-2,5-dimethyl-4-(pyridin-3-ylmethyl)piperazin-1-yl]-3-(trifluoromethyl)[1,2,4]triazolo[4,3-b]pyridazine], for which the DC50 was 3.7 µM. The value for `C[C@H]1CN(Cc2ccc(F)c(C#N)c2)CCN1c1ccc2nnc(C(F)(F)F)n2n1` [Example 598] was 4.2 µM. Consider `FC(F)(F)c1ccc(CN2CC3CN(c4ccc5nnc(C(F)(F)F)n5n4)CC3C2)cn1` (stereo not drawn) [Example 201, 3-(trifluoromethyl)-6-[2-[[6-(trifluoromethyl)pyridin-3-yl]methyl]-1,3,3a,4,6,6a-hexahydropyrrolo[3,4-c]pyrrol-5-yl]-[1,2,4]triazolo[4,3-b]pyridazine], for which the DC50 worked out at 1.7 µM. With `FC(F)(F)c1nnc2ccc(N3CCN(Cc4ccc5c(c4)CCO5)CC3)nn12` [Example 84, 6-[4-(2,3-dihydro-1-benzofuran-5-ylmethyl)piperazin-1-yl]-3-(trifluoromethyl)-[1,2,4]triazolo[4,3-b]pyridazine], the DC50 turned out to be 1.8 µM. The value for `Fc1cnccc1C1CCN(c2ccc3nnc(C(F)(F)F)n3n2)CC1` [Example 611] was 1.6 µM.

Consider `Fc1ccc(-c2nc(N3CCN(c4ccc5nnc(C(F)(F)F)n5n4)CC3)no2)cc1` [Example 274], for which the DC50 came to 6.1 µM. As to `Fc1cccc(CN2CCN(c3ccc4nnc(C(F)(F)F)n4n3)CC2)c1F` [Example 381], the DC50 was 2.1 µM.

Take `OC1(Cc2ccccc2)CCN(c2ccc3nnc(C(F)(F)F)n3n2)CC1` [Example 548]: the DC50 is 2.2 µM. Then `Fc1cncc(C2=CCN(c3ccc4nnc(C(F)(F)F)n4n3)CC2)c1` [Example 607], with 7.4 µM; and `C[C@H]1CN(c2ccc3nnc(C(F)(F)F)n3n2)CCN1Cc1ccc(F)c(C#N)c1` [Example 575], with 2.5 µM; and `COc1ccc2[nH]cc(C3CCN(c4ccc5nnc(C(F)(F)F)n5n4)CC3)c2c1` [Example 494, 6-[4-(5-methoxy-1H-indol-3-yl)piperidin-1-yl]-3-(trifluoromethyl)[1,2,4]triazolo[4,3-b]pyridazine], with 0.43 µM.

Regarding `C[C@@H]1CN(c2ccc3nnc(C(F)(F)F)n3n2)CCN1Cc1ccc(Cl)nc1` [Example 833], the DC50 is more than 12 µM.

Regarding `Fc1cccc(OC2CN(c3ccc4nnc(C(F)(F)F)n4n3)C2)c1` [Example 483, 6-[3-(3-fluorophenoxy)azetidin-1-yl]-3-(trifluoromethyl)[1,2,4]triazolo[4,3-b]pyridazine], the DC50 was more than 30 µM. Then `Fc1ccccc1CN1CCCN(c2ccc3nnc(C(F)(F)F)n3n2)CC1` [Example 169, 6-[4-[(2-fluorophenyl)methyl]-1,4-diazepan-1-yl]-3-(trifluoromethyl)-[1,2,4]triazolo[4,3-b]pyridazine], with 0.92 µM; and `CCOc1ccc(CN2CCN(c3ccc4nnc(C(F)(F)F)n4n3)CC2)cc1` [Example 108, 6-[4-[(4-ethoxyphenyl)methyl]piperazin-1-yl]-3-(trifluoromethyl)-[1,2,4]triazolo[4,3-b]pyridazine], with 2.3 µM; and `FC(F)(F)c1nnc2ccc(N3CCN(Cc4ccco4)CC3)nn12` [Example 79, 6-[4-(furan-2-ylmethyl)piperazin-1-yl]-3-(trifluoromethyl)-[1,2,4]triazolo[4,3-b]pyridazine], with 2.4 µM. Then `Cn1nccc1CCOc1ccc(C2(O)CCN(c3ccc4nnc(C(F)(F)F)n4n3)CC2)cc1` [Example 860, 4-[4-[2-(1-methyl-1H-pyrazol-5-yl)ethoxy]phenyl]-1-[3-(trifluoromethyl)[1,2,4]triazolo[4,3-b]pyridazin-6-yl]piperidin-4-ol], with 0.8 µM; and `FC(F)(F)c1cnc(N2CCCN(c3ccc4nnc(C(F)(F)Cl)n4n3)CC2)c(Cl)c1` [Example 351, 3-[chloro(difluoro)methyl]-6-[4-[3-chloro-5-(trifluoromethyl)pyridin-2-yl]-1,4-diazepan-1-yl][1,2,4]triazolo[4,3-b]pyridazine], with 1.9 µM; and `FC(F)c1nnc2ccc(N3CCN(Cc4c(Cl)[nH]c5ccccc45)CC3)nn12` [Example 291], with more than 9.7 µM. Then `O=C(CN1CCCC1)Nc1ccc(C2CCN(c3ccc4nnc(C(F)(F)F)n4n3)CC2)cc1` [Example 709], with 1.7 µM; and `FC(F)(F)c1nnc2ccc(N3CCN(Cc4cccs4)CC3)nn12` [Example 70, 6-[4-(thiophen-2-ylmethyl)piperazin-1-yl]-3-(trifluoromethyl)-[1,2,4]triazolo[4,3-b]pyridazine], with 0.64 µM; and `FC(F)Oc1cccc(CN2CCN(c3ccc4nnc(C(F)(F)F)n4n3)CC2)c1` [Example 162, 6-[4-[[3-(difluoromethoxy)phenyl]methyl]piperazin-1-yl]-3-(trifluoromethyl)-[1,2,4]triazolo[4,3-b]pyridazine], with 1 µM. On to `COc1ncccc1CN1CC2CN(c3ccc4nnc(C(F)(F)F)n4n3)CC2C1` (stereo not drawn) [Example 788], for which the DC50 was 2.2 µM.

For `FC(F)(F)c1nnc2ccc(N3CCC(c4cccc(OCCCN5CCNCC5)c4)CC3)nn12` [Example 673], the DC50 was found to be 0.73 µM.

Consider `O=C(c1cccc(C2CCN(c3ccc4nnc(C(F)(F)F)n4n3)CC2)c1)N1CCNCC1` [Example 646], for which the DC50 came to 6.1 µM. The value for `CN1CCN(CCOc2ccc(OC3CCN(c4ccc5nnc(C(F)(F)F)n5n4)CC3)cc2)CC1` [Example 440] was 2.3 µM; that for `Cc1cc(COc2ccc(C3CCN(c4ccc5nnc(C(F)(F)F)n5n4)CC3)cc2)no1` [Example 729] was 0.92 µM; that for `CC1CN(c2ccc3nnc(C(F)(F)F)n3n2)C(C)CN1Cc1ccc(F)c(F)c1` (stereo not drawn) [Example 219] was 3.5 µM. The value for `Fc1ccc(F)c(CN2CCN(c3ccc4nnc(C(F)F)n4n3)CC2)c1` [Example 259] was 4.8 µM; that for `COc1ccc(C(c2ccccc2)N2CCN(c3ccc4nnc(C(F)(F)F)n4n3)CC2)cc1` (stereo not drawn) [Example 25, 6-[4-[(4-methoxyphenyl)-phenylmethyl]piperazin-1-yl]-3-(trifluoromethyl)-[1,2,4]triazolo[4,3-b]pyridazine] was 1.1 µM; that for `COc1ccc(C2CCN(c3ccc4nnc(C(F)(F)F)n4n3)CC2)cc1` [Example 523] was 1 µM. Turning to `N#Cc1ccccc1S(=O)(=O)N1CCN(c2ccc3nnc(C(F)(F)F)n3n2)CC1` [Example 403], the DC50 was 4.8 µM. Take `FC(F)(F)c1nnc2ccc(N3CCC(COc4ncccn4)CC3)nn12` [Example 558]: the DC50 was 2.6 µM.

On to `CNC(=O)c1cccc(OC2CCN(c3ccc4nnc(C(F)(F)F)n4n3)CC2)c1` [Example 694], for which the DC50 is 3.2 µM.

For the compound `CS(=O)(=O)c1cccc(CN2CCCN(c3ccc4nnc(C(F)(F)F)n4n3)CC2)c1` [Example 165, 6-[4-[(3-methylsulfonylphenyl)methyl]-1,4-diazepan-1-yl]-3-(trifluoromethyl)-[1,2,4]triazolo[4,3-b]pyridazine], the DC50 is 1.7 µM.

The values are drawn from patent US8003649B2 (AstraZeneca AB, priority 2007, dated 2011).
